Data from patent publication US20230113037A1 (Bayer Aktiengesellschaft, priority 2019, published 2023).
Values joined by “and” are separate entries in the source; they are usually repeats but may differ in a detail not shown here. Equal values may be shown once. Read-outs that look alike come from different tables or passages of the source.

Legend:
AHR [1] = biological target: T1, AHR (Mus musculus, UniProt P30561); test: In vitro assay 3: antagonism in mouse cell line (AHR transactivation, firefly luciferase reporter, kynurenic acid prestimulated); assay type: cell-based
T1 sequence (P30561 1-848 P471L/N533S/M589L): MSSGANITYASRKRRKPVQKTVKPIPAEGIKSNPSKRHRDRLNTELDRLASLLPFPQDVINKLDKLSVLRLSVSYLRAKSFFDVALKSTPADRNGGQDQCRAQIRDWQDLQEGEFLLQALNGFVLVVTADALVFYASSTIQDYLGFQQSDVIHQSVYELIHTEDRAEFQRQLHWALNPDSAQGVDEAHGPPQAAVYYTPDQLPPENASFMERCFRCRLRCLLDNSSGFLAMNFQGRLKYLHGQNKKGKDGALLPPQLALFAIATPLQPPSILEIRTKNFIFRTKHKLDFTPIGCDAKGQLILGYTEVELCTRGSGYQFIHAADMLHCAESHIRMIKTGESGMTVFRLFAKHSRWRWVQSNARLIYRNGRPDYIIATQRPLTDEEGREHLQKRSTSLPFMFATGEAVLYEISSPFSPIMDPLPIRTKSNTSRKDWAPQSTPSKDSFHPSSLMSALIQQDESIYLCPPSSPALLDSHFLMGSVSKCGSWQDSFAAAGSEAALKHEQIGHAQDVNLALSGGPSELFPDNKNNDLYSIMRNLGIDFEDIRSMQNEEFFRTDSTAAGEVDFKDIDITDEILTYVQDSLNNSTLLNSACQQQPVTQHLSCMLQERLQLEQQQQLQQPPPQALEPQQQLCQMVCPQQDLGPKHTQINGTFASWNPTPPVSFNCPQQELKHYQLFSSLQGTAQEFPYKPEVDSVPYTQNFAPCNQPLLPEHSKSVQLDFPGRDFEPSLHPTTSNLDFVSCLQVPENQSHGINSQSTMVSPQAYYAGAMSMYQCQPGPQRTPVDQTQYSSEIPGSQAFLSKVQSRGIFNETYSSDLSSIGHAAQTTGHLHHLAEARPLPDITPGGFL
Method in brief: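 Cells were first stimulated with kynurenic acid, then exposed to test compound, after which firefly luciferase from a DRE-containing AHR reporter was read out. Signal was scaled between positive and negative controls. Cells not given kynurenic acid provided the inhibition reference.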

AHR [2] = biological target: T2, AHR (Homo sapiens, UniProt P35869); test: In vitro assay 1: antagonism in human cell line (AHR transactivation, firefly luciferase reporter, kynurenic acid prestimulated); assay type: cell-based; details: AHR Antagonism Human IC50 [M]
T2 construct: U87 MG glioblastoma cells (ATCC #HTB-14) endogenously expressing AHR; endogenous in cells; host or cells: U87 MG glioblastoma cells (ATCC #HTB-14)
T2 sequence (P35869 11-848): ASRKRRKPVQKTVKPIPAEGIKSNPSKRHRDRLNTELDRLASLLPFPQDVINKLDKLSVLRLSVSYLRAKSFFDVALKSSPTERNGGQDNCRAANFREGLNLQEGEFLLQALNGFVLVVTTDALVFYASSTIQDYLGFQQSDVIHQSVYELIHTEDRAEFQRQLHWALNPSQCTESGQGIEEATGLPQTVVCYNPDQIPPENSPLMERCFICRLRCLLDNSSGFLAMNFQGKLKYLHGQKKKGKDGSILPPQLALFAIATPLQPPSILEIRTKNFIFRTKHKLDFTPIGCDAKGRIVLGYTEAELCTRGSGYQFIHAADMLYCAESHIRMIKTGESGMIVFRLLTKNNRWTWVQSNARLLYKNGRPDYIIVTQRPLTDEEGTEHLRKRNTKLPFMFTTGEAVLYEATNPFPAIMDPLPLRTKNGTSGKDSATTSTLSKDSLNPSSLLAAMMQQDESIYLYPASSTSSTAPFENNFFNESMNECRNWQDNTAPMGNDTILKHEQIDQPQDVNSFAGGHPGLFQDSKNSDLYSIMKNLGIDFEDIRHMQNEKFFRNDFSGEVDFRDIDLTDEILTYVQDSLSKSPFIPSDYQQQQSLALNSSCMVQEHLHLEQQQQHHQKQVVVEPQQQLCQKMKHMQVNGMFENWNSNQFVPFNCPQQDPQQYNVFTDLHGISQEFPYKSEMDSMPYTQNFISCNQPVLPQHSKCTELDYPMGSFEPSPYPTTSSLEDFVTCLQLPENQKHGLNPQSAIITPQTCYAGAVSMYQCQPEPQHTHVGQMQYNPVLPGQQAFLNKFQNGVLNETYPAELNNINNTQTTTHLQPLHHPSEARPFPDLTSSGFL
Experimental: Examples were tested in selected biological assays one or more times. When tested more than once, data are reported as either average values or as median values, wherein • the average value, also referred to as the arithmetic mean value, represents the sum of the values obtained divided by the number of times tested, and • the median value represents the middle number of the group of values when ranked in ascending or descending order. If the number of values in the data set is odd, the median is the middle value. If the number of values in the data set is even, the median is the arithmetic mean of the two middle values.
Transactivation assays were carried out in U87 MG glioblastoma cells (ATCC #HTB-14) endogenously expressing AHR. In addition the cells were stably transfected with an AHR inducible firefly luciferase reporter gene construct that carried AHR-binding sites (DRE) in its promoter and a renilla reporter gene construct with constitutively active promoter. Kynurenic acid is an endogenous AHR activating ligand and was used to prestimulate test cells prior to testing the antagonistic properties of compounds.
As positive inhibition control cells supplemented with 150 μM kynurenic acid were incubated in presence of 5 μM Staurosporin. Normalization was done by positive and negative controls.
Firefly luciferase and Renilla activity was determined by the DualGlo Luciferase Assay System (Promega, #2920). Renilla activity was used to assess toxic effects of compounds.

[3] = mouse Hepa 1c1c7 cells, 200 μM kynurenic acid, 20 hours, read-out: AHR Antagonism Mouse IC50
[4] = Hepa 1c1c7 cells, 200 μM kynurenic acid, 20 hours, firefly luciferase reporter, read-out: AHR Antagonism Mouse IC50

IC50 (AHR [1]; [3]) [µM]	IC50 (AHR [2]) [M]	SMILES	further results
0.000349	2.81e-10	O=C1NCCNC[C@H]1Nc1nc2c(C(F)(F)F)cccc2c2nc(-c3ccc(F)cc3)nn12 [Example 423, (6R)-6-{[2-(4-fluorophenyl)-7-(trifluoromethyl)[1,2,4]triazolo[1,5-c]quinazolin-5-yl]amino}-1,4-diazepan-5-one]	–
0.00571	2.22e-08	O=C1NCCCC[C@H]1Nc1nc2ccccc2c2nc(-c3cc(F)ccc3OC(F)(F)F)nn12 [Example 492, (3R)-3-({2-[5-fluoro-2-(trifluoromethoxy)phenyl][1,2,4]triazolo[1,5-c]quinazolin-5-yl}amino)azepan-2-one]	–
–	–	COc1ccc(-c2nc3c4cccc(Br)c4nc(N[C@H](C)C(=O)O)n3n2)cc1 [Example 870]	IC50 (AHR [1]; [4]): 0.0107 µM; IC50 (AHR [2]; firefly luciferase reporter): 1.09e-08 M
0.0517	2.44e-08	Cc1nc(-c2nc3c4ccccc4nc(N[C@@H]4CCCCNC4=O)n3n2)co1 [Example 70, (3R)-3-{[2-(2-methyl-1,3-oxazol-4-yl)[1,2,4]triazolo[1,5-c]quinazolin-5-yl]amino}azepan-2-one]	–
0.00493	1.61e-08	CC[C@@H](Nc1nc2ccccc2c2nc(-c3ccc(S(C)(=O)=O)cc3)nn12)C(N)=O [Example 376, (2R)-2-({2-[4-(methanesulfonyl)phenyl][1,2,4]triazolo[1,5-c]quinazolin-5-yl}amino)butanamide]	–
0.0169	1.57e-08	Cc1ccccc1-c1nc2c3ccccc3nc(NC3CCCNC3=O)n2n1 (stereo not shown) [Example 44, 3-{[2-(2-methylphenyl)[1,2,4]triazolo[1,5-c]quinazolin-5-yl]amino}piperidin-2-one]	–
–	–	CCCCNC(=O)[C@H](CC)Nc1nc2c(Br)cccc2c2nc(-c3ccc(Cl)cc3OC(F)(F)F)nn12 [Example 813, (2S)-2-({7-bromo-2-[4-chloro-2-(trifluoromethoxy)phenyl][1,2,4]triazolo[1,5-c]quinazolin-5-yl}amino)-N-butylbutanamide]	IC50 (AHR [1]; [4]): 1.92 µM and > 2 µM; IC50 (AHR [2]; firefly luciferase reporter): > 2e-06 M
0.0019	8.31e-10	O=C1NCCCC[C@H]1Nc1nc2c(C(F)(F)F)cccc2c2nc(-c3cnn(CC4CC4)c3)nn12 [Example 742, (3R)-3-({2-[1-(cyclopropylmethyl)-1H-pyrazol-4-yl]-7-(trifluoromethyl)[1,2,4]triazolo[1,5-c]quinazolin-5-yl}amino)azepan-2-one]	–
0.068	1.11e-06	COc1cccc(-c2nc3c4ccccc4nc(NC4CNCCNC4=O)n3n2)c1 (stereo not shown) [Example 115, 6-{[2-(3-methoxyphenyl)[1,2,4]triazolo[1,5-c]quinazolin-5-yl]amino}-1,4-diazepan-5-one]	–
–	–	Cn1cc(-c2nc3c4cccc(C(C)(C)O)c4nc(N[C@@H]4CCCCNC4=O)n3n2)cn1 [Example 861, (3R)-3-{[7-(2-hydroxypropan-2-yl)-2-(1-methyl-1H-pyrazol-4-yl)[1,2,4]triazolo[1,5-c]quinazolin-5-yl]amino}azepan-2-one]	IC50 (AHR [2]; firefly luciferase reporter): 1.34e-07 M
–	3.65e-07	COc1ccc(-c2nc3c4cc(OC)c(OC)cc4nc(N[C@@H]4CCCCNC4=O)n3n2)cc1 [Example 590, (3R)-3-{[8,9-dimethoxy-2-(4-methoxyphenyl)[1,2,4]triazolo[1,5-c]quinazolin-5-yl]amino}azepan-2-one]	–
–	1.21e-06	CCNC(=O)C(CC)Nc1nc2ccccc2c2nc(-c3cccc(OC(F)(F)F)c3)nn12 (single isomer, unassigned) [Example 320, N-ethyl-2-({2-[3-(trifluoromethoxy)phenyl][1,2,4]triazolo[1,5-c]quinazolin-5-yl}amino)butanamide]	–
–	5.35e-06	COc1ccc2c(c1)nc(N[C@@H]1CCCCNC1=O)n1nc(-c3cnn(C)c3)nc21 [Example 550]	–
–	2.8e-09	O=C1NCCCCCC1Nc1nc2ccccc2c2nc(-c3ccc(Cl)cc3OC(F)F)nn12 (stereo not shown) [Example 529, 3-({2-[4-chloro-2-(difluoromethoxy)phenyl][1,2,4]triazolo[1,5-c]quinazolin-5-yl}amino)azocan-2-one]	–
–	–	C[C@@H](Nc1nc2c(C(F)(F)F)cccc2c2nc(-c3cnn(C)c3)nn12)C(=O)O [Example 869, N-[2-(1-methyl-1H-pyrazol-4-yl)-7-(trifluoromethyl)[1,2,4]triazolo[1,5-c]quinazolin-5-yl]-D-alanine]	IC50 (AHR [2]; firefly luciferase reporter): > 2e-05 M
–	2.14e-08	O=C1NCCCC[C@H]1Nc1nc2cccc(Br)c2c2nc(-c3cccc(F)c3)nn12 [Example 163, (3R)-3-{[10-bromo-2-(3-fluorophenyl)[1,2,4]triazolo[1,5-c]quinazolin-5-yl]amino}azepan-2-one]	–
–	6.78e-08	COc1cccc(-c2nc3c4ccccc4nc(NC4(C(N)=O)CCCC4)n3n2)c1 [Example 99, 1-{[2-(3-methoxyphenyl)[1,2,4]triazolo[1,5-c]quinazolin-5-yl]amino}cyclopentane-1-carboxamide]	–
–	1.45e-07	CCCCNC(=O)CNc1nc2ccccc2c2nc(-c3cccc(OC(F)(F)F)c3)nn12 [Example 317, N-butyl-N^2-{2-[3-(trifluoromethoxy)phenyl][1,2,4]triazolo[1,5-c]quinazolin-5-yl}glycinamide]	–
–	9.92e-10	O=C1NCCCC[C@H]1Nc1nc2ccccc2c2nc(-c3ccc(Cl)cc3OC(F)F)nn12 [Example 525, (3R)-3-({2-[4-chloro-2-(difluoromethoxy)phenyl][1,2,4]triazolo[1,5-c]quinazolin-5-yl}amino)azepan-2-one]	–
–	> 4e-05	Cn1cc(-c2nc3c4ccccc4nc(NC4CNCCNC4=O)n3n2)cn1 (single isomer, unassigned) [Example 24, 6-{[2-(1-methyl-1H-pyrazol-4-yl)[1,2,4]triazolo[1,5-c]quinazolin-5-yl]amino}-1,4-diazepan-5-one]	–

SMILES	IC50 (AHR [1]; [3]) [µM]	IC50 (AHR [2]) [M]	further results
O=C1NCCCC[C@H]1Nc1nc2ccccc2c2nc(-c3nc(CCO)no3)nn12 [Example 305, (3R)-3-({2-[3-(2-Hydroxyethyl)-1,2,4-oxadiazol-5-yl][1,2,4]triazolo[1,5-c]quinazolin-5-yl}amino)azepan-2-one]	–	2.97e-07	IC50 (AHR [1]; read-out: AHR Antagonism Mouse IC50, mouse Hepa 1c1c7 cells, 200 μM kynurenic acid, 20 hours): 0.178 µM
